Measurements from patent publication US9796741B2 (Achillion Pharmaceuticals, Inc., priority 2014, dated 2017).
Like-named read-outs stand apart in the source and are kept apart here.

Target: Human factor D (Homo sapiens (Human), UniProt P00746)
Experiment: Human Factor D Assay
Type: biochemical
Protocol: Human factor D (purified from human serum, Complement Technology, Inc.) at 80 nM final concentration is incubated with test compound at various concentrations for 5 minutes at room temperature in 50 mM Tris, 1M NaCl, pH 7.5. A synthetic substrate Z-L-Lys-SBzl and DTNB (Ellman's reagent) are added to final concentrations of 100 μM each. The increase in color is recorded at OD405 nm in a microplate in kinetic mode over 30 minutes with 30 second time points in a spectrofluorimeter. IC50 values are calculated by non-linear regression from the percentage of inhibition of complement factor D activity as a function of test compound concentration.

[1] = human factor D 80 nM, substrate Z-L-Lys-SBzl, DTNB

Chain of Human factor D (P00746 26-253): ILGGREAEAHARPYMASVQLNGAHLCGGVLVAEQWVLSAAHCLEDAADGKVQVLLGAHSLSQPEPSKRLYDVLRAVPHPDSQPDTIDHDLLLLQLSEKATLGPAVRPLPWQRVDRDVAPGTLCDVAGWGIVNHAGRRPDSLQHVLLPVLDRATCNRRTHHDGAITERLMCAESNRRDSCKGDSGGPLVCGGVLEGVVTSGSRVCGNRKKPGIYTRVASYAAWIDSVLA

| SMILES | IC50 [1] [µM] | IC50 [µM] |
| --- | --- | --- |
| NC(=O)c1nn(CC(=O)N2C[C@H](F)C[C@H]2C(=O)Nc2cccc3c2CN(c2ccccn2)C3)c2ccc(-c3ccnnc3)cc12 [Compound 104, 1-(2-((2S,4R)-4-fluoro-2-(2-(pyridin-2-yl)isoindolin-4-ylcarbamoyl)pyrrolidin-1-yl)-2-oxoethyl)-5-(pyridazin-4-yl)-1H-indazole-3-carboxamide] | > 10 | – |
| NC(=O)c1nn(CC(=O)N2C[C@H](F)C[C@H]2C(=O)Nc2ccccc2N2CCOC2=O)c2ccc(-c3ccnnc3)cc12 [Compound 65, 1-(2-((2S,4R)-4-fluoro-2-(2-(2-oxooxazolidin-3-yl)phenylcarbamoyl)pyrrolidin-1-yl)-2-oxoethyl)-5-(pyridazin-4-yl)-1H-indazole-3-carboxamide] | > 10 | – |
| CC(=O)c1nn(CC(=O)N2C[C@H](F)C[C@H]2C(=O)Nc2cccc(-c3ccccc3Cl)c2F)c2ccc(-c3cnc(C)nc3)cc12 [Compound 163, (2S,4R)-1-(2-(3-acetyl-5-(2-methylpyrimidin-5-yl)-1H-indazol-1-yl)acetyl)-N-(2′-chloro-2-fluorobiphenyl-3-yl)-4-fluoropyrrolidine-2-carboxamide] | < 1 | – |
| NC(=O)c1nn(CC(=O)N2C[C@H](F)C[C@H]2C(=O)Nc2cccc(-c3ccccc3Cl)c2F)c2cnc(-c3cncnc3)cc12 [Compound 19, 1-(2-((2S,4R)-2-(2′-chloro-2-fluorobiphenyl-3-ylcarbamoyl)-4-fluoropyrrolidin-1-yl)-2-oxoethyl)-5-(pyrimidin-5-yl)-1H-pyrazolo[3,4-c]pyridine-3-carboxamide] | < 1 | – |
| CC(=O)c1cn(CC(=O)N2C[C@H](F)C[C@H]2C(=O)Nc2nc(-c3ccccc3Cl)ns2)c2ccc(-c3ccnnc3)cc12 [Compound 99, (2S,4R)-1-(2-(3-acetyl-5-(pyridazin-4-yl)-1H-indol-1-yl)acetyl)-N-(3-(2-chlorophenyl)-1,2,4-thiadiazol-5-yl)-4-fluoropyrrolidine-2-carboxamide] | < 1 | – |
| CC(=O)c1cn(CC(=O)N2C[C@H](F)C[C@H]2C(=O)Nc2nnc(-c3ccc(Cl)c(Cl)c3)s2)c2ccc(-c3ccnnc3)cc12 [Compound 117, (2S,4R)-1-(2-(3-acetyl-5-(pyridazin-4-yl)-1H-indol-1-yl)acetyl)-N-(5-(3,4-dichlorophenyl)-1,3,4-thiadiazol-2-yl)-4-fluoropyrrolidine-2-carboxamide] | > 10 | – |
| NC(=O)c1nn(CC(=O)N2[C@@H]3C[C@@H]3C[C@H]2C(=O)Nc2cccc(-c3ccccc3Cl)c2F)c2ccc(-c3cncnc3)cc12 [Compound 6, 1-(2-((1R,3S,5R)-3-(2′-chloro-2-fluorobiphenyl-3-ylcarbamoyl)-2-azabicyclo[3.1.0]hexan-2-yl)-2-oxoethyl)-5-(pyrimidin-5-yl)-1H-indazole-3-carboxamide] | < 1 | – |
| NC(=O)c1nn(CC(=O)N2C[C@H](F)C[C@H]2C(=O)N[C@H]2CCCC[C@@H]2OCc2ccccc2)c2ccc(-c3ccnnc3)cc12 [Compound 78] | > 10 | – |
| COc1ncc(-c2ccc3c(c2)c(C(C)=O)cn3CC(=O)N2[C@@H]3C[C@@H]3C[C@H]2C(=O)Nc2cccc(Br)n2)cn1 [Compound 81, (1R,3S,5R)-2-(2-(3-acetyl-5-(2-methoxypyrimidin-5-yl)-1H-indol-1-yl)acetyl)-N-(6-bromopyridin-2-yl)-2-azabicyclo[3.1.0] hexane-3-carboxamide] | < 1 | – |
| NC(=O)c1nn(CC(=O)N2C[C@H](F)C[C@H]2C(=O)Nc2cccc(OC(F)(F)F)c2F)c2ccc(-c3cncnc3)cc12 [Compound 9, 1-(2-((2S,4R)-4-fluoro-2-(2-fluoro-3-(trifluoromethoxy)phenylcarbamoyl)pyrrolidin-1-yl)-2-oxoethyl)-5-(pyrimidin-5-yl)-1H-indazole-3-carboxamide] | < 1 | – |
| CC(=O)c1cn(CC(=O)N2C[C@H](F)C[C@H]2C(=O)NC2CCCN(c3cnn(C)c3)C2)c2ccc(-c3ccnnc3)cc12 (stereo partly drawn) [Compound 140, (2S,4R)-1-(2-(3-acetyl-5-(pyridazin-4-yl)-1H-indol-1-yl)acetyl)-4-fluoro-N-(1-(1-methyl-1H-pyrazol-4-yl)piperidin-3-yl)pyrrolidine-2-carboxamide] | – | 1 to 10 |
| CC(=O)c1cn(CC(=O)N2C[C@H](F)C[C@H]2C(=O)Nc2noc3cc(C(F)(F)F)ccc23)c2ccc(-c3ccnnc3)cc12 [Compound 42, (2S,4R)-1-(2-(3-acetyl-5-(pyridazin-4-yl)-1H-indol-1-yl)acetyl)-4-fluoro-N-(6-(trifluoromethyl)benzo [d]isoxazol-3-yl)pyrrolidine-2-carboxamide] | > 10 | – |
| NC(=O)c1nn(CC(=O)N2C[C@H](F)C[C@H]2C(=O)N[C@@H]2CCC[C@@H]2OCc2ccccc2)c2ccc(-c3ccnnc3)cc12 [Compound 51, 1-(2-((2S,4R)-2-((1R,2S)-2-(benzyloxy)cyclopentylcarbamoyl)-4-fluoropyrrolidin-1-yl)-2-oxoethyl)-5-(pyridazin-4-yl)-1H-indazole-3-carboxamide] | > 10 | – |
| CC(=O)c1cn(CC(=O)N2C[C@H](F)C[C@H]2C(=O)NCc2ccccn2)c2ccc(-c3ccnnc3)cc12 [Compound 38, (2S,4R)-1-(2-(3-acetyl-5-(pyridazin-4-yl)-1H-indol-1-yl)acetyl)-4-fluoro-N-(pyridin-2-ylmethyl)pyrrolidine-2-carboxamide] | < 1 | – |
| CC(=O)c1cn(CC(=O)N2C[C@H](F)C[C@H]2C(=O)Nc2ccc(CN)cc2)c2ccc(-c3ccnnc3)cc12 [Compound 85, (2S,4R)-1-(2-(3-acetyl-5-(pyridazin-4-yl)-1H-indol-1-yl)acetyl)-N-(4-(aminomethyl)phenyl)-4-fluoropyrrolidine-2-carboxamide] | > 10 | – |
| NCc1ccc(NC(=O)[C@@H]2C[C@@H](F)CN2C(=O)Cn2nc(C(N)=O)c3cc(-c4ccnnc4)ccc32)cc1 [Compound 70, 1-(2-((2S,4R)-2-(4-(aminomethyl)phenylcarbamoyl)-4-fluoropyrrolidin-1-yl)-2-oxoethyl)-5-(pyridazin-4-yl)-1H-indazole-3-carboxamide] | > 10 | – |
| CC(=O)c1cn(CC(=O)N2C[C@H](F)C[C@H]2C(=O)Nc2cccc(-c3ccccc3Cl)c2F)c2ccc(N3CCN(c4ncccn4)CC3)cc12 [Compound 31, (2S,4R)-1-(2-(3-acetyl-5-(4-(pyrimidin-2-yl)piperazin-1-yl)-1H-indol-1-yl)acetyl)-N-(2′-chloro-2-fluorobiphenyl-3-yl)-4-fluoropyrrolidine-2-carboxamide] | < 1 | – |
| CC(=O)c1cn(CC(=O)N2C[C@H](F)C[C@H]2C(=O)NCc2cccc(Cl)c2F)c2ccc(-c3cnc(C)nc3)cc12 [Compound 135, (2S,4R)-1-(2-(3-acetyl-5-(2-methylpyrimidin-5-yl)-1H-indol-1-yl)acetyl)-N-(3-chloro-2-fluorobenzyl)-4-fluoropyrrolidine-2-carboxamide] | < 1 | – |
| CNC(=O)[C@@H]1C[C@@H](F)CN1C(=O)Cn1nc(C(N)=O)c2cc(-c3ccnnc3)ccc21 [Compound 79, 1-(2-((2S,4R)-4-fluoro-2-(methylcarbamoyl)pyrrolidin-1-yl)-2-oxoethyl)-5-(pyridazin-4-yl)-1H-indazole-3-carboxamide] | > 10 | – |
| NC(=O)c1nn(CC(=O)N2[C@@H]3C[C@@H]3C[C@H]2C(=O)Nc2cccc(Br)n2)c2ccc(-c3cnc(N4CCCC4)nc3)cc12 [Compound 11] | < 1 | – |
| NC(=O)c1nn(CC(=O)N2C[C@H](F)C[C@H]2C(=O)Nc2nc(-c3cccc(Cl)c3)ns2)c2ccc(-c3ccnnc3)cc12 [Compound 146, 1-(2-((2S,4R)-2-(3-(3-chlorophenyl)-1,2,4-thiadiazol-5-ylcarbamoyl)-4-fluoropyrrolidin-l-yl)-2-oxoethyl)-5-(pyridazin-4-yl)-1H-indazole-3-carboxamide] | > 10 | – |
| NC(=O)c1nn(CC(=O)N2C[C@H](F)C[C@H]2C(=O)N[C@@H]2CCC[C@H]2O)c2ccc(-c3ccnnc3)cc12 [Compound 145, 1-(2-((2S,4R)-4-fluoro-2-((1R,2R)-2-hydroxycyclopentyl-carbamoyl)pyrrolidin-1-yl)-2-oxoethyl)-5-(pyridazin-4-yl)-1H-indazole-3-carboxamide] | > 10 | – |
| NC(=O)c1nn(CC(=O)N2[C@@H]3C[C@@H]3C[C@H]2C(=O)Nc2cccc(Br)n2)c2ccc(-c3cncnc3)cc12 [Compound 4] | < 1 | – |
| CC(=O)c1cn(CC(=O)N2C[C@H](F)C[C@H]2C(=O)Nc2cccc(-c3ccccc3Cl)c2F)c2ccc(-c3cnc(O)nc3)cc12 [Compound 186, (2S,4R)-1-(2-(3-acetyl-5-(2-hydroxypyrimidin-5-yl)-1H-indol-1-yl)acetyl)-N-(2′-chloro-2-fluorobiphenyl-3-yl)-4-fluoropyrrolidine-2-carboxamide] | < 1 | – |
| CC(=O)c1cn(CC(=O)N2C[C@H](F)C[C@H]2C(=O)Nc2cccc(Br)n2)c2ccc(-c3ccccc3Cl)cc12 [Compound 100, (2S,4R)-1-(2-(3-acetyl-5-(2-chlorophenyl)-1H-indol-1-yl)acetyl)-N-(6-bromopyridin-2-yl)-4-fluoropyrrolidine-2-carboxamide] | < 1 | – |
| CC(=O)c1cn(CC(=O)N2C[C@H](F)C[C@H]2C(=O)Nc2ccccc2N2CCOC2=O)c2ccc(-c3ccnnc3)cc12 [Compound 64, (2S,4R)-1-(2-(3-acetyl-5-(pyridazin-4-yl)-1H-indol-1-yl)acetyl)-4-fluoro-N-(2-(2-oxooxazolidin-3-yl)phenyl)pyrrolidine-2-carboxamide] | > 10 | – |
| CC(=O)c1cn(CC(=O)N2C[C@H](F)C[C@H]2C(=O)Nc2ccccc2-n2nccc2C)c2ccc(-c3ccnnc3)cc12 [Compound 72, (2S,4R)-1-(2-(3-acetyl-5-(pyridazin-4-yl)-1H-indol-1-yl)acetyl)-4-fluoro-N-(2-(5-methyl-1H-pyrazol-1-yl)phenyl)pyrrolidine-2-carboxamide] | > 10 | – |
